One assay deals with RET kinase V804M (Homo sapiens, UniProt P07949, V804M). Kind of assay: RET Enzyme Assay (CisBio HTRF KinEASE-TK), V804M. As to conditions: read-out: RET V804M Enz FRET IC50. It counts as biochemical. In general terms: In TR-FRET formats the signal depends on donor and acceptor labels being close together.
In assay [1] the target is T1, HEK-293 cells expressing a Kif5b-RET fusion protein (Homo sapiens, UniProt P07949).
T1 construct: KIF5B (N-terminal portion incl. coiled-coil); expressed in transfected cells; host or cells: HEK-293; the other entry of the earlier key: KIF5B (P33176, Kinesin-1 heavy chain)
T1 sequence (P07949 713-1063 limits assumed): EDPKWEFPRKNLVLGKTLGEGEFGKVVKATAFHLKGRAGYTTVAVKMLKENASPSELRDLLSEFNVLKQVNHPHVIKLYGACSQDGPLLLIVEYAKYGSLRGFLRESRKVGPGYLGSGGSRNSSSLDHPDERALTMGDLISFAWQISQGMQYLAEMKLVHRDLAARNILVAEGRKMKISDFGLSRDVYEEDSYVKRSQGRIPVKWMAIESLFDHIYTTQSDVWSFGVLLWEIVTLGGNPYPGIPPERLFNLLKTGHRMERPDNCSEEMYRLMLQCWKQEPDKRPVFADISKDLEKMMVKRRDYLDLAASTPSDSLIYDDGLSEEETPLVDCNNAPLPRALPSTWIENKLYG
Kind of assay: RET Cell Assay (phospho-RET Tyr1062). It counts as cell-based. Particulars: HEK-293 Kif5b-RET, 1 hour incubation, phospho-RET normalized to GAPDH; read-out: KIF5B-RET pTYR1062 Cell IC50. As for the experimental part:
(§1) The cellular potency of compounds inhibiting RET kinase were determined in HEK-293 cells expressing a Kif5b-RET fusion protein. Briefly, HEK-293 cells expressing a Kif5b-RET fusion protein were plated at 50K cells/well in 96 well poly-D-Lysine coated plates the day prior to the assay. The cells were incubated for 1 hour with test compound in DMEM (Dulbecco's Modified Eagle Medium) at a final DMSO concentration of 0.5%. […] After 1 hour the media was removed, the cells were fixed with 3.8% formaldehyde for 20 min, washed with PBS, and permeabilized for 10 min with 100% methanol. The plates were then washed with PBS-0.05% Tween20, and blocked with LI-COR Blocking solution (LI-COR Catalog No. 927-40000) for 1 hour. Plates were washed with PBS-0.05% Tween20, then incubated with anti-phospho-RET (Tyr1062) (Santa Cruz Catalog No. sc-20252-R) antibody and anti-GAPDH (Millipore Catalog No. MAB374) antibody for 2 hours. The plates were washed with PBS-0.05% Tween20, and incubated with anti-rabbit 680 (Molecular Probes Catalog No. A21109) and anti-mouse 800 (LI-COR Catalog No. 926-32210) secondary antibodies for 1 hour. All antibodies were diluted in LI-COR Block containing 0.05% Tween. The plates were washed with PBS-0.05% Tween20,100 μL PBS is added to each well, and the plates were read on a LI-COR Aerius fluorescent plate reader. The phospho-RET signal was normalized to the GAPDH signal. […] The POC values were fit to a 4 parameter logistic curve. The IC50 value is the point where the curve crosses 50 POC.

Assay [2] has as its target T2, HEK-293 cells expressing a G810R mutant RET Kif5b-RET fusion protein (Homo sapiens, UniProt P07949, G810R).
T2 construct: KIF5B (N-terminal portion incl. coiled-coil); expressed in transfected cells; host or cells: HEK-293; the other entry of the earlier key: KIF5B (P33176, Kinesin-1 heavy chain)
T2 sequence (P07949 713-1063 G810R limits assumed): T1 sequence (P07949 713-1063 limits assumed) with G98R
As to the kind of experiment: RET G810R Mutant Cell Assay (phospho-RET Tyr1062). It counts as cell-based. As to conditions: HEK-293 Kif5b-RET G810R, 1 hour incubation, phospho-RET normalized to GAPDH. As for the experimental part: as §1, with “expressing a G810R or G810S mutant RET Kif5b-RET fusion” for “expressing a Kif5b-RET fusion”, “μL PBS was added to” for “μL PBS is added to”, “POC values are fit to” for “POC values were fit to”

For a further assay, the target named is RET kinase Wild Type (Homo sapiens, UniProt P07949). Kind of assay: biochemical.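 Note: HTRF kinase activity assay on RET enzyme, 1 h reaction at 22 °C, dual-wavelength readout as percent of control, DMSO-only wells as 100%, pre-quenched reactions as 0%.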
Chain of RET kinase Wild Type (P07949 29-1114): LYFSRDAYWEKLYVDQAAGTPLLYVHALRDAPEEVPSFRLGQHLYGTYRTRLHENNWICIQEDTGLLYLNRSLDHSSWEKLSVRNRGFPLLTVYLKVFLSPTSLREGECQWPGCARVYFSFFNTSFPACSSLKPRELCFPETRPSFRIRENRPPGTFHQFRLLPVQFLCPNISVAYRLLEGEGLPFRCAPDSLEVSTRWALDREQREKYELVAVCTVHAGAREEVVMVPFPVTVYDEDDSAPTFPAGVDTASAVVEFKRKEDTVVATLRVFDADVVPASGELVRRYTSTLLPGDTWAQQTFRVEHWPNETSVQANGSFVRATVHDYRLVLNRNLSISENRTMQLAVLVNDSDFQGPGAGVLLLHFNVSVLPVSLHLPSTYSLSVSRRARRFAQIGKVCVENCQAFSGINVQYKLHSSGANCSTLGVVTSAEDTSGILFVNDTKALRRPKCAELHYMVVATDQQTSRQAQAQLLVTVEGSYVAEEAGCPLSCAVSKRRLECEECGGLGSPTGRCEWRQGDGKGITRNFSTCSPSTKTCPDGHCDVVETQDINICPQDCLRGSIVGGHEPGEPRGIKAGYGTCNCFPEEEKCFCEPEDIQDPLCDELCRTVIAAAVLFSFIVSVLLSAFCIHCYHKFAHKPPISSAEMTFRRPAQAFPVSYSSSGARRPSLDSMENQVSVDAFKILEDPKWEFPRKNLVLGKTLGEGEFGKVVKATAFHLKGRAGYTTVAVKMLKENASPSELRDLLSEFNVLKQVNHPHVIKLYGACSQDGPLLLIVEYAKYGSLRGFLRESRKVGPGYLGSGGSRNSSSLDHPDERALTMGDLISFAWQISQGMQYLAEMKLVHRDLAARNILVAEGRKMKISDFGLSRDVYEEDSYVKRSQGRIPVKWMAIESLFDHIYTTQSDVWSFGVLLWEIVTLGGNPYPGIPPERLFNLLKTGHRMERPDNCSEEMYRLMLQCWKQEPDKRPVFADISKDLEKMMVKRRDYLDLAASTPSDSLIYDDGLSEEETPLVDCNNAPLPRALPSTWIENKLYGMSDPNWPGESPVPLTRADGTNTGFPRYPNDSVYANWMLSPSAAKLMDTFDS
In a further assay the target is G810R mutant RET kinase (Homo sapiens, UniProt P07949, G810R). Kind of assay: biochemical.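 Note: HTRF KinEASE-TK enzymatic assay with 1 nM recombinant RET G810R, 1 h at 22 °C, dual-wavelength ratiometric readout, 100% control without compound, 0% from pre-quenched reactions.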
Chain of G810R mutant RET kinase (P07949 29-1114 G810R): as the sequence (P07949 29-1114) above, with G782R counted along it
For a further assay, the target named is G810S mutant RET kinase (Homo sapiens, UniProt P07949, G810S). Kind of assay: biochemical.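 Note: HTRF KinEASE-TK kinase assay with recombinant enzyme, 1 h at 22 °C, dual-wavelength ratiometric read-out, percent of control (DMSO-only = 100, pre-quenched reaction = 0).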
Chain of G810S mutant RET kinase (P07949 29-1114 G810S): as the sequence (P07949 29-1114) above, with G782S counted along it

Substitutions are numbered along the chain they refer to. pIC50: −log10 of the molar value.

By pIC50 is commonly meant the IC50 on a negative log10 scale, so that one unit is a factor of ten.

Chain of RET kinase V804M (P07949 29-1114 V804M): as the sequence (P07949 29-1114) above, with V776M counted along it
Procedure for RET kinase Wild Type: The potency of compounds inhibiting several different RET kinase forms (Wild Type, V804M, G810R, & G810S) were determined using CisBio's HTRF® KinEASE™-TK assay technology. […] After a 1 hour incubation at 22° C., the extent of reaction was determined using a PerkinElmer EnVision multimode plate reader via HTRF dual wavelength detection, and the percent of control (POC) was calculated using a ratiometric emission factor. One hundred POC was determined using DMSO only samples (no compound present), and 0 POC was determined using pre-quenched control reactions.

Turning to `CCN1Cc2c(c3c(N)ncnc3n2C(C)C)-c2noc(C3CC3)c2C1=O` [Example 1, 11-amino-3-cyclopropyl-5-ethyl-7-isopropyl-6,7-dihydroisoxazolo[4,3-c]pyrimido[5′,4′:4,5]pyrrolo[3,2-e]azepin-4(5H)-one], the pIC50 at RET kinase V804M was 6.69; in assay [1], 7.77; in assay [2], 6.75; on RET kinase Wild Type it was 7.28; against G810R mutant RET kinase it was 6.84; at G810S mutant RET kinase, 6.93.

`CC(C)n1c2c(c3c(N)ncnc31)-c1ccc(C3CC3)cc1C(=O)NC2` [Example 47, 12-amino-3-cyclopropyl-8-isopropyl-7,8-dihydrobenzo[c]pyrimido[5′,4′:4,5]pyrrolo[3,2-e]azepin-5(6H)-one]: the pIC50 on RET kinase V804M is 5.03; in assay [1], 6.87; in assay [2] it was 5.71; at RET kinase Wild Type, 6.95; at G810R mutant RET kinase, 6.57; against G810S mutant RET kinase, 6.52.

In the case of `CC(C)n1c2c(c3c(N)ncnc31)-c1ccc(Cl)cc1C(=O)NC2` [Example 45, 12-amino-3-chloro-8-isopropyl-7,8-dihydrobenzo[c]pyrimido[5′,4′:4,5]pyrrolo[3,2-e]azepin-5(6H)-one], the pIC50 in assay [1] was 6.46; in assay [2], 6.09; against RET kinase Wild Type, 6.71; against G810R mutant RET kinase, 6.56; on G810S mutant RET kinase it was 6.25.

Turning to `CC(C)n1c2c(c3c(N)ncnc31)-c1cc3ccccc3n1C(=O)NC2` [Example 69, 1-amino-5-isopropyl-6,7-dihydropyrimido[5″,4″:4′,5′]pyrrolo[2′,3′:5,6][1,3]diazepino[1,7-a]indol-8(5H)-one], the pIC50 is 6.99 in assay [1]; 6.40 in assay [2]; 7.47 at RET kinase Wild Type; 7.33 on G810R mutant RET kinase; 7.19 at G810S mutant RET kinase.

For `CC(C)n1c2c(c3c(N)ncnc31)-c1noc(C3CC3)c1S(=O)(=O)N(C)C2` [Example 22, 11-amino-3-cyclopropyl-7-isopropyl-5-methyl-6,7-dihydro-5H-isoxazolo[3,4-f]pyrimido[5′,4′:4,5]pyrrolo[2,3-d][1,2]thiazepine 4,4-dioxide], the pIC50 on RET kinase V804M was 6.49; in assay [1] it was 7.19; in assay [2] it was 6.30; against RET kinase Wild Type, 7.51; on G810R mutant RET kinase, 6.99; against G810S mutant RET kinase it was 7.12.

Consider `CC(C)n1c2c(c3c(N)ncnc31)-c1noc(C3CC3)c1C(=O)N(Cc1ccccc1)C2` [Example 7, 11-amino-5-benzyl-3-cyclopropyl-7-isopropyl-6,7-dihydroisoxazolo[4,3-c]pyrimido[5′,4′:4,5]pyrrolo[3,2-e]azepin-4(5H)-one], for which the pIC50 at RET kinase V804M is 6.47; in assay [1], 6.87; in assay [2], 6.18; against RET kinase Wild Type it was 7.04; on G810R mutant RET kinase it was 6.77; on G810S mutant RET kinase, 6.45.

Take `CCCN1Cc2c(c3c(N)ncnc3n2C(C)C)-c2noc(C3CC3)c2C1=O` [Example 4]: the pIC50 on RET kinase V804M is 6.97; in assay [1], 7.22; in assay [2], 6.54; on RET kinase Wild Type, 7.80; at G810R mutant RET kinase, 6.80; on G810S mutant RET kinase, 6.87.

Turning to `CC(C)n1c2c(c3c(N)ncnc31)-c1noc(C3CC3)c1CN(S(C)(=O)=O)C2` [Example 35, 3-cyclopropyl-7-isopropyl-5-(methylsulfonyl)-4,5,6,7-tetrahydroisoxazolo[4,3-c]pyrimido[5′,4′:4,5]pyrrolo[3,2-e]azepin-11-amine 2,2,2-trifluoroacetate], the pIC50 at RET kinase V804M is 6.94; in assay [1], 7.46; in assay [2], 6.08; against RET kinase Wild Type, 7.33; against G810R mutant RET kinase, 6.91; against G810S mutant RET kinase it was 6.96.

As to `Cc1cc2n(n1)C(=O)NCc1c-2c2c(N)ncnc2n1C(C)C` [Example 105, 12-amino-8-isopropyl-2-methyl-7,8-dihydropyrazolo[1,5-c]pyrimido[5′,4′:4,5]pyrrolo[3,2-e][1,3]diazepin-5(6H)-one 2,2,2-trifluoroacetate], the pIC50 in assay [1] is 5.87; in assay [2], 4.81; against RET kinase Wild Type, 6.19; at G810R mutant RET kinase, 6.13; on G810S mutant RET kinase, 5.59.

Regarding `CNC1CCc2c(c3c(N)ncnc3n2C(C)C)-c2noc(C3CC3)c21` (stereo not shown) [Example 27, 3-cyclopropyl-7-isopropyl-N4-methyl-4,5,6,7-tetrahydroisoxazolo[4″,3″:6′,7′]cyclohepta[1′,2′:4,5]pyrrolo[2,3-d]pyrimidine-4,11-diamine], the pIC50 at RET kinase V804M is 6.23; against RET kinase Wild Type, 6.85; against G810R mutant RET kinase it was 6.51; against G810S mutant RET kinase it was 6.24.

On to `Nc1ncnc2c1c1c(n2[C@H]2C[C@@H](CO)C2)CCC(O)c2c-1noc2C1CC1` (stereo partly shown) [Example 136, 11-Amino-3-cyclopropyl-7-((1s,3s)-3-(hydroxymethyl)cyclobutyl)-4,5,6,7-tetrahydroisoxazolo[4″,3″:6′,7′]cyclohepta[1′,2′:4,5]pyrrolo[2,3-d]pyrimidin-4-ol 2,2,2-trifluoroacetate], for which the pIC50 was 6.26 at RET kinase V804M, 6.70 at RET kinase Wild Type, 6.56 on G810R mutant RET kinase and 6.09 against G810S mutant RET kinase.

With `CC(C)n1c2c(c3c(N)ncnc31)-c1cc3ccccc3n1C(=O)CC2` [Example 68, 1-amino-5-isopropyl-6,7-dihydropyrimido[5″,4″:4′,5′]pyrrolo[3′,2′:3,4]azepino[1,2-a]indol-8(5H)-one], the pIC50 is 5.75 in assay [1]; 5.32 in assay [2]; 6.41 on RET kinase Wild Type; 6.31 on G810R mutant RET kinase; 5.93 against G810S mutant RET kinase.
